Results: patent US20030134292A1, “Thermostable DNA polymerases and methods of making same” (priority 2001, published 2003)

Assays:
Type in all cases: biochemical
[1] = target: T1, Tth Δ273 F668Y (polymerase C) (Thermus thermophilus, UniProt P52028, F274M/F669Y); assay: DNA polymerase activity assay with detergent or additive, Tth Δ273 F668Y purified without detergent
T1 construct: made in house; host or cells: E. coli
Description: (§1) DNA polymerase activity was measured by running reactions of 50 μL containing 25 mM TAPS (tris-hydroxymethyl-methylaminopropane sulfonic acid) buffer, pH 9.3 (measured at 25° C.), 50 mM KCl, 2 mM MgCl2, 1 mM 2-mercaptoethanol, 0.2 mM each of dGTP, dCTP, dTTP, 0.2 mM [α-^33P]-dATP (0.05-0.1 Ci/mmol) and 0.4 mg/mL activated salmon sperm DNA. The reaction mixture (45 μL) was pre-heated to 74° C. and diluted polymerase (5 μL) added with thorough mixing. After 10 minutes of further incubation at 74° C., the reaction was stopped by the addition of 10 μL of 60 mM EDTA and the entire mixture placed at 0° C. Acid-precipitable radioactivity was determined on an aliquot ([…]) by diluting with 1 ml of 2 mM EDTA containing 0.05 mg/ml salmon sperm DNA and adding 1 mL of 20% (w/v) trichloroacetic acid, 2% (w/v) sodium pyrophosphate (Na4P2O7 10H2O) and incubating on ice for at least 15 minutes. Precipitated DNA was collected by filtering through 2.4 cm GFC filter disks (Schleichter and Schuell) and washed 7 times with 5ml of with 1 N HCl, 0.1 M sodium pyrophosphate. The filter was placed in 3 ml of aqueous scintillation counting fluid and ^33P-specific radioactivity determined by scintillation counting.
(§2) For the assays presented in Tables 5 and 6, the polymerase was diluted 10-5000 fold in a buffer containing 25 mM Tris-HCl pH 8.0, 50 mM KCl, 1 mM 2-mercaptoethanol, and the indicated concentration of detergent or other additive. Where possible, only reactions which incorporated 20- 100 pmol of dAMP in 10 minutes were used for calculation of activity.

[2] = target: T2, Taq Δ271 F667Y E681W (polymerase B) (Thermus aquaticus, UniProt P19821, E681W/F272M/F667Y); assay: DNA polymerase activity assay with detergent or additive, Taq Δ271 F667Y E681W purified without detergent
T2 construct: made in house; host or cells: E. coli
T2 sequence (P19821 272-832 F272M/F667Y/E681W): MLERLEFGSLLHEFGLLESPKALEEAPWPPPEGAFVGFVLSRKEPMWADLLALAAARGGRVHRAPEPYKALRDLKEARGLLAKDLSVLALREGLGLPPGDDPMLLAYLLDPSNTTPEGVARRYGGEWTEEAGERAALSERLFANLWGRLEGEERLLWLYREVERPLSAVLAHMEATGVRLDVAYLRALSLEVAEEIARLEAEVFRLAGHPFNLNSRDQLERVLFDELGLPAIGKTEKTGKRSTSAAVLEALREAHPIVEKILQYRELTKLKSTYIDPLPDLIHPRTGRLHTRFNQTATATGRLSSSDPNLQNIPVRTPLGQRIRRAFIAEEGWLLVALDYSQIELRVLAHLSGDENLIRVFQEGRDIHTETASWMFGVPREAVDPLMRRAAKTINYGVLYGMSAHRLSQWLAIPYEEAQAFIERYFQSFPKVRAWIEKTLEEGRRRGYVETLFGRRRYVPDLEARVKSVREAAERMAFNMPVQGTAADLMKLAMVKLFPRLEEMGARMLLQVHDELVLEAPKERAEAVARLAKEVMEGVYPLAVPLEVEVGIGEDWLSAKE
Description: as §1, §2

[3] = target: T3, Taq Δ271 F667Y (polymerase A) (Thermus aquaticus, UniProt P19821, F272M/F667Y); assay: DNA polymerase activity assay with detergent or additive, Taq Δ271 F667Y purified without detergent
T3 construct: made in house; host or cells: E. coli
Description: as §1, §2

[4] = test system: activated salmon sperm DNA; assay: Specific DNA polymerase activity of enzymes purified and assayed with or without Tween 20 and NP-40
Description: In one embodiment of the present invention, Taq Δ271 F667Y, and Taq Δ271 F667Y E681W were purified with or without detergents NP-40 & Tween-20. The butyl Sepharose chromatography elution profile for polymerase extracted without detergents was essentially identical to the profile for polymerase extracted with Tween 20 and NP-40.
as §1

[5] = additive final concentration 0.001% (w/v) in assay reaction mixture
[6] = additive final concentration 0.01% (w/v)
[7] = additive final concentration 0.05% (w/v)
[8] = additive final concentration 0.1% (w/v)
[9] = additive final concentration 0.2% (w/v)
[10] = detergent in purification: 0.1% Tween 20, 0.1% NP-40, detergent in assay: 0.1% Tween 20, 0.1% NP-40 (reference, 100%)
[11] = detergent in purification: 0.1% Tween 20, 0.1% NP-40, detergent in assay: None
[12] = detergent in purification: None, detergent in assay: 0.1% Tween 20, 0.1% NP-40
[13] = detergent in purification: None, detergent in assay: None, 100% = polymerase purified and assayed using Tween 20 and NP-40

T1 sequence (P52028 274-834 F274M/F669Y): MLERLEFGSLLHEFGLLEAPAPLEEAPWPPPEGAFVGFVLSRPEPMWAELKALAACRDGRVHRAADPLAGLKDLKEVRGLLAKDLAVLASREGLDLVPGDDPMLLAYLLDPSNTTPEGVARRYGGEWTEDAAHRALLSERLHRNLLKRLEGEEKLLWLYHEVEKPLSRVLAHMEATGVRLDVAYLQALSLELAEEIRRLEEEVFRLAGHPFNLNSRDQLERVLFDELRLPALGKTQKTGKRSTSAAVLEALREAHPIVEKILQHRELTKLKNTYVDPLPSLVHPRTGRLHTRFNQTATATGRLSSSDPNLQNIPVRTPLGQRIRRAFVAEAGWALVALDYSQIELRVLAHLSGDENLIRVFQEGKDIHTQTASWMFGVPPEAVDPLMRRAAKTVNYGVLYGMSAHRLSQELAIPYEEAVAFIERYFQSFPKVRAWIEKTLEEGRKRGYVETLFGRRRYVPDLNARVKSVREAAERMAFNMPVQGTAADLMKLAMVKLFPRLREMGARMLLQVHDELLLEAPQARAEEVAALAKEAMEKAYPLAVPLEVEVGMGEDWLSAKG

Molecule	Tth Δ273 F668Y activity relative to 0.5% each NP-40 and Tween 20 [1, 6]	Tth Δ273 F668Y activity relative to 0.5% each NP-40 and Tween 20 [1, 7]	Taq Δ271 F667Y E681W activity relative to 0.5% each NP-40 and Tween 20 [2, 6]	Taq Δ271 F667Y E681W activity relative to 0.5% each NP-40 and Tween 20 [2, 8]	Taq Δ271 F667Y activity relative to 0.5% each NP-40 and Tween 20 [3, 6]	Taq Δ271 F667Y activity relative to 0.5% each NP-40 and Tween 20 [3, 7]	Tth Δ273 F668Y activity relative to 0.5% each NP-40 and Tween 20 [1, 8]	Taq Δ271 F667Y activity relative to 0.5% each NP-40 and Tween 20 [3, 8]	Taq Δ271 F667Y E681W activity relative to 0.5% each NP-40 and Tween 20 [2, 7]	also measured
CCCCCCCCO[C@@H]1O[C@H](CO)[C@H](O)[C@H](O)[C@H]1O [N-octyl β-D-galactopyranoside]	− − (Activity 20-50%)	+ + + (Activity > 80% (relative to activity using 0.5% each NP-40 and Tween 20))	− − − (Activity < 20%)	− (Activity 50-60%)	− − − (Activity < 20%)	− − (Activity 20-50%)				Tth Δ273 F668Y activity relative to 0.5% each NP-40 and Tween 20 [1, 5]: − − (Activity 20-50%); Taq Δ271 F667Y E681W activity relative to 0.5% each NP-40 and Tween 20 ([2]; additive final concentration 0.25% (w/v)): + (Activity 60-70%); Taq Δ271 F667Y E681W activity relative to 0.5% each NP-40 and Tween 20 ([2]; additive final concentration 0.5% (w/v)): − − − (Activity < 20%); Taq Δ271 F667Y activity relative to 0.5% each NP-40 and Tween 20 [3, 5]: − − − (Activity < 20%)
CCCCCCCCO[C@@H]1O[C@H](CO)[C@@H](O)[C@H](O)[C@H]1O [Octyl Glucopyranoside, n-octyl-β-D-glucopyranoside]	− − − (Activity < 20%)		− − − (Activity < 20%)	+ + + (Activity > 80% (relative to activity using 0.5% each NP-40 and Tween 20))	− − − (Activity < 20%)		+ + + (Activity > 80% (relative to activity using 0.5% each NP-40 and Tween 20))	− − (Activity 20-50%)		Polymerase C Activity (%) ([1]; detergent 0.1% (w/v)): 79.7%; Polymerase B Activity (%) ([2]; detergent 0.1% (w/v)): 1%
C[C@H](CCC(=O)[O-])[C@H]1CC[C@H]2[C@@H]3[C@H](O)C[C@@H]4C[C@H](O)CC[C@]4(C)[C@H]3C[C@H](O)[C@]12C.[Na+] [Sodium Cholate]	− − − (Activity < 20%)	− − − (Activity < 20%)	− − − (Activity < 20%)	− − − (Activity < 20%)	− − − (Activity < 20%)	− − − (Activity < 20%)	− − − (Activity < 20%)	− − − (Activity < 20%)	− − − (Activity < 20%)	
CCCCCCCC[N+](C)(C)CCCS(=O)(=O)[O-] [Zwittergent 3-08]		− − (Activity 20-50%)		− − (Activity 20-50%)		− − − (Activity < 20%)	− (Activity 50-60%)	− − (Activity 20-50%)	− − − (Activity < 20%)	Tth Δ273 F668Y activity relative to 0.5% each NP-40 and Tween 20 [1, 9]: + (Activity 60-70%); Taq Δ271 F667Y E681W activity relative to 0.5% each NP-40 and Tween 20 [2, 9]: − − (Activity 20-50%); Taq Δ271 F667Y activity relative to 0.5% each NP-40 and Tween 20 [3, 9]: − − (Activity 20-50%)
CCCCCCCCCC[N+](C)(C)CCCS(=O)(=O)[O-] [Zwittergent 3-10]		− − (Activity 20-50%)		− − (Activity 20-50%)		− − (Activity 20-50%)	+ (Activity 60-70%)	− − (Activity 20-50%)	− − − (Activity < 20%)	Tth Δ273 F668Y activity relative to 0.5% each NP-40 and Tween 20 [1, 9]: + (Activity 60-70%); Taq Δ271 F667Y E681W activity relative to 0.5% each NP-40 and Tween 20 [2, 9]: − − (Activity 20-50%); Taq Δ271 F667Y activity relative to 0.5% each NP-40 and Tween 20 [3, 9]: − (Activity 50-60%)
CCCCCCCCCCCCO[C@@H]1O[C@H](CO)[C@@H](O[C@H]2O[C@H](CO)[C@@H](O)[C@H](O)[C@H]2O)[C@H](O)[C@H]1O [n-Dodecyl-β-D-Maltoside, n-dodecyl-β-D-maltoside]	+ + + (Activity > 80% (relative to activity using 0.5% each NP-40 and Tween 20))		+ + + (Activity > 80% (relative to activity using 0.5% each NP-40 and Tween 20))	+ (Activity 60-70%)	+ ++					Polymerase C Activity (%) ([1]; detergent 0.01% (w/v)): 80.8%; Taq Δ271 F667Y E681W activity relative to 0.5% each NP-40 and Tween 20 [2, 5]: + (Activity 60-70%); Taq Δ271 F667Y E681W activity relative to 0.5% each NP-40 and Tween 20 ([2]; additive final concentration 0.02% (w/v)): + (Activity 60-70%); Polymerase B Activity (%) ([2]; detergent 0.01% (w/v)): 92.3%; Polymerase A Activity (%) ([3]; detergent 0.01% (w/v)): 98.8%
Sodium Deoxycholate	− − − (Activity < 20%)	− − − (Activity < 20%)	− − − (Activity < 20%)	− − − (Activity < 20%)	− − − (Activity < 20%)	− − − (Activity < 20%)	− − − (Activity < 20%)	− − − (Activity < 20%)	− − − (Activity < 20%)	
Taq Δ271, F667Y: Taq Δ271 F667Y DNA Polymerase (Thermo Sequenase), SEQ ID NO: 10, recombinant thermostable DNA polymerase (protein, listed as Thermus aquaticus) MLERLEFGSLLHEFGLLESPKALEEAPWPPPEGAFVGFVLSRKEPMWADLLALAAARGGRVHRAPEPYKALRDLKEARGLLAKDLSVLALREGLGLPPGDDPMLLAYLLDPSNTTPEGVARRYGGEWTEEAGERAALSERLFANLWGRLEGEERLLWLYREVERPLSAVLAHMEATGVRLDVAYLRALSLEVAEEIARLEAEVFRLAGHPFNLNSRDQLERVLFDELGLPAIGKTEKTGKRSTSAAVLEALREAHPIVEKILQYRELTKLKSTYIDPLPDLIHPRTGRLHTRFNQTATATGRLSSSDPNLQNIPVRTPLGQRIRRAFIAEEGWLLVALDYSQIELRVLAHLSGDENLIRVFQEGRDIHTETASWMFGVPREAVDPLMRRAAKTINYGVLYGMSAHRLSQELAIPYEEAQAFIERYFQSFPKVRAWIEKTLEEGRRRGYVETLFGRRRYVPDLEARVKSVREAAERMAFNMPVQGTAADLMKLAMVKLFPRLEEMGARMLLQVHDELVLEAPKERAEAVARLAKEVMEGVYPLAVPLEVEVGIGEDWLSAKE										Assay (%*) specific activity [4, 10]: 100%; Assay (%*) specific activity [4, 11]: 3%; Assay (%*) specific activity [4, 12]: 102%; Assay (%*) specific activity [4, 13]: 5%
Taq Δ271, F667Y, E681W: Taq Δ271 F667Y E681W DNA Polymerase, SEQ ID NO: 12, recombinant thermostable DNA polymerase (protein, listed as Thermus aquaticus) MLERLEFGSLLHEFGLLESPKALEEAPWPPPEGAFVGFVLSRKEPMWADLLALAAARGGRVHRAPEPYKALRDLKEARGLLAKDLSVLALREGLGLPPGDDPMLLAYLLDPSNTTPEGVARRYGGEWTEEAGERAALSERLFANLWGRLEGEERLLWLYREVERPLSAVLAHMEATGVRLDVAYLRALSLEVAEEIARLEAEVFRLAGHPFNLNSRDQLERVLFDELGLPAIGKTEKTGKRSTSAAVLEALREAHPIVEKILQYRELTKLKSTYIDPLPDLIHPRTGRLHTRFNQTATATGRLSSSDPNLQNIPVRTPLGQRIRRAFIAEEGWLLVALDYSQIELRVLAHLSGDENLIRVFQEGRDIHTETASWMFGVPREAVDPLMRRAAKTINYGVLYGMSAHRLSQWLAIPYEEAQAFIERYFQSFPKVRAWIEKTLEEGRRRGYVETLFGRRRYVPDLEARVKSVREAAERMAFNMPVQGTAADLMKLAMVKLFPRLEEMGARML										Assay (%*) specific activity [4, 10]: 100%; Assay (%*) specific activity [4, 11]: 2%; Assay (%*) specific activity [4, 12]: 157%; Assay (%*) specific activity [4, 13]: 6%
